Source: the supplement of paper PMC10307832

Experiments:
Experiment in all cases: relative viability (nuclei count vs DMSO), 5 days (fraction); higher = more cells survive
NCI-H2342 = tested on: NCI-H2342
How it was run: (§1)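 Relative viability equals treated-well nuclei counts divided by vehicle-well nuclei counts. Counts came from 4× images of lung cancer cell lines grown in 1536-well plates for 5 days after pin-tool dosing on the day after seeding. Dosing used one drug alone or a fixed anchor-drug dose plus five library-drug doses (not always all listed) in √10 steps, and values are medians of duplicate plates.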

NCI-H2405 = tested on: NCI-H2405
How it was run: as §1

LXF-289 = tested on: LXF-289
How it was run: as §1

NCI-H322M = tested on: NCI-H322M
How it was run: as §1

PC-14 = tested on: PC-14
How it was run: as §1

HCC-827 = tested on: HCC-827
How it was run: as §1

HCC-78 = tested on: HCC-78
How it was run: as §1

EKVX = tested on: EKVX
How it was run: as §1

LK-2 = tested on: LK-2
How it was run: as §1

NCI-H1975 = tested on: NCI-H1975
How it was run: as §1

RERF-LC-KJ = tested on: RERF-LC-KJ
How it was run: as §1

EPLC-272H = tested on: EPLC-272H
How it was run: as §1

NCI-H23 = tested on: NCI-H23
How it was run: as §1

NCI-H2126 = tested on: NCI-H2126
How it was run: as §1

SW 1573 = tested on: SW 1573
How it was run: as §1

LU99A = tested on: LU99A
How it was run: as §1

EMC-BAC-2 = tested on: EMC-BAC-2
How it was run: as §1

NCI-H1666 = tested on: NCI-H1666
How it was run: as §1

ChaGo-K-1 = tested on: ChaGo-K-1
How it was run: as §1

SW 900 = tested on: SW 900
How it was run: as §1

LCLC-103H = tested on: LCLC-103H
How it was run: as §1

SK-LU-1 = tested on: SK-LU-1
How it was run: as §1

With O=c1cc(N2CCOCC2)oc2c(-c3cccc4c3sc3ccccc34)cccc12 + Nc1ncn([C@H]2C[C@H](O)[C@@H](CO)O2)c(=O)n1 [Decitabine] (partner 2 µM) the relative viability (NCI-H2342; first compound 0.01 µM) was 0.631, the relative viability (NCI-H2342; first compound 0.03162 µM) was 0.652 and the relative viability (NCI-H2342; first compound 0.1 µM) was 0.774. It also gave a relative viability (NCI-H2342; first compound 0.3162 µM) of 0.726, a relative viability (NCI-H2342; first compound 1 µM) of 0.672 and a relative viability (NCI-H2405; first compound 0.01 µM) of 0.82. It also gave a relative viability (NCI-H2405; first compound 0.03162 µM) of 0.715, a relative viability (NCI-H2405; first compound 0.1 µM) of 0.812 and a relative viability (NCI-H2405; first compound 0.3162 µM) of 0.76. For the same compound, the relative viability (NCI-H2405; first compound 1 µM) was 0.788, the relative viability (LXF-289; first compound 0.01 µM) was 0.457 and the relative viability (LXF-289; first compound 0.03162 µM) was 0.386. The relative viability (LXF-289; first compound 0.1 µM) was 0.391, the relative viability (LXF-289; first compound 0.3162 µM) was 0.371 and the relative viability (LXF-289; first compound 1 µM) was 0.392. The relative viability (NCI-H322M; first compound 0.01 µM) was 0.683, the relative viability (NCI-H322M; first compound 0.03162 µM) was 0.678 and the relative viability (NCI-H322M; first compound 0.3162 µM) was 0.748. It also gave a relative viability (NCI-H322M; first compound 1 µM) of 0.751, a relative viability (PC-14; first compound 0.01 µM) of 0.274 and a relative viability (PC-14; first compound 0.03162 µM) of 0.272. The relative viability (PC-14; first compound 0.1 µM) was 0.191, the relative viability (PC-14; first compound 0.3162 µM) was 0.267 and the relative viability (PC-14; first compound 1 µM) was 0.267. For the same compound, the relative viability (HCC-827; first compound 0.01 µM) was 0.291, the relative viability (HCC-827; first compound 0.03162 µM) was 0.329 and the relative viability (HCC-827; first compound 0.1 µM) was 0.296. For the same compound, the relative viability (HCC-827; first compound 0.3162 µM) was 0.314, the relative viability (HCC-827; first compound 1 µM) was 0.161 and the relative viability (HCC-78; first compound 0.01 µM) was 0.611. It also gave a relative viability (HCC-78; first compound 0.03162 µM) of 0.716, a relative viability (HCC-78; first compound 0.1 µM) of 0.544 and a relative viability (HCC-78; first compound 0.3162 µM) of 0.652. It also gave a relative viability (HCC-78; first compound 1 µM) of 0.692, a relative viability (EKVX; first compound 0.01 µM) of 0.355 and a relative viability (EKVX; first compound 0.03162 µM) of 0.321. For the same compound, the relative viability (EKVX; first compound 0.1 µM) was 0.37, the relative viability (EKVX; first compound 0.3162 µM) was 0.282 and the relative viability (EKVX; first compound 1 µM) was 0.336. It also gave a relative viability (LK-2; first compound 0.01 µM) of 0.355, a relative viability (LK-2; first compound 0.03162 µM) of 0.324 and a relative viability (LK-2; first compound 0.1 µM) of 0.338. The relative viability (LK-2; first compound 0.3162 µM) was 0.278, the relative viability (LK-2; first compound 1 µM) was 0.285 and the relative viability (NCI-H1975; first compound 0.01 µM) was 0.438. The relative viability (NCI-H1975; first compound 0.03162 µM) was 0.4, the relative viability (NCI-H1975; first compound 0.1 µM) was 0.394 and the relative viability (NCI-H1975; first compound 0.3162 µM) was 0.371. For the same compound, the relative viability (NCI-H1975; first compound 1 µM) was 0.353, the relative viability (RERF-LC-KJ; first compound 0.01 µM) was 0.746 and the relative viability (RERF-LC-KJ; first compound 0.03162 µM) was 0.697. For the same compound, the relative viability (RERF-LC-KJ; first compound 0.1 µM) was 0.778, the relative viability (RERF-LC-KJ; first compound 0.3162 µM) was 0.751 and the relative viability (RERF-LC-KJ; first compound 1 µM) was 0.712. It also gave a relative viability (EPLC-272H; first compound 0.01 µM) of 0.392, a relative viability (EPLC-272H; first compound 0.03162 µM) of 0.398 and a relative viability (EPLC-272H; first compound 0.1 µM) of 0.329. The relative viability (EPLC-272H; first compound 0.3162 µM) was 0.359, the relative viability (EPLC-272H; first compound 1 µM) was 0.376 and the relative viability (NCI-H23; first compound 0.01 µM) was 0.288. For the same compound, the relative viability (NCI-H23; first compound 0.03162 µM) was 0.322, the relative viability (NCI-H23; first compound 0.3162 µM) was 0.326 and the relative viability (NCI-H23; first compound 1 µM) was 0.307. For the same compound, the relative viability (NCI-H2126; first compound 0.01 µM) was 0.558, the relative viability (NCI-H2126; first compound 0.03162 µM) was 0.609 and the relative viability (NCI-H2126; first compound 0.1 µM) was 0.601. It also gave a relative viability (NCI-H2126; first compound 0.3162 µM) of 0.559, a relative viability (NCI-H2126; first compound 1 µM) of 0.569 and a relative viability (SW 1573; first compound 0.01 µM) of 0.625. For the same compound, the relative viability (SW 1573; first compound 0.03162 µM) was 0.577, the relative viability (SW 1573; first compound 0.1 µM) was 0.529 and the relative viability (SW 1573; first compound 0.3162 µM) was 0.409. The relative viability (SW 1573; first compound 1 µM) was 0.665, the relative viability (LU99A; first compound 0.01 µM) was 0.906 and the relative viability (LU99A; first compound 0.03162 µM) was 1.01. For the same compound, the relative viability (LU99A; first compound 0.1 µM) was 0.993, the relative viability (LU99A; first compound 0.3162 µM) was 0.827 and the relative viability (LU99A; first compound 1 µM) was 0.978. The relative viability (EMC-BAC-2; first compound 0.01 µM) was 1.05, the relative viability (EMC-BAC-2; first compound 0.03162 µM) was 1.02 and the relative viability (EMC-BAC-2; first compound 0.1 µM) was 1.01. It also gave a relative viability (EMC-BAC-2; first compound 0.3162 µM) of 0.93, a relative viability (EMC-BAC-2; first compound 1 µM) of 0.95 and a relative viability (NCI-H1666; first compound 0.01 µM) of 0.71. For the same compound, the relative viability (NCI-H1666; first compound 0.03162 µM) was 0.762, the relative viability (NCI-H1666; first compound 0.1 µM) was 0.713 and the relative viability (NCI-H1666; first compound 0.3162 µM) was 0.736. For the same compound, the relative viability (NCI-H1666; first compound 1 µM) was 0.677, the relative viability (ChaGo-K-1; first compound 0.01 µM) was 0.524 and the relative viability (ChaGo-K-1; first compound 0.03162 µM) was 0.539. It also gave a relative viability (ChaGo-K-1; first compound 0.1 µM) of 0.532, a relative viability (ChaGo-K-1; first compound 0.3162 µM) of 0.57 and a relative viability (ChaGo-K-1; first compound 1 µM) of 0.546. For the same compound, the relative viability (SW 900; first compound 0.03162 µM) was 0.435, the relative viability (SW 900; first compound 0.1 µM) was 0.471 and the relative viability (SW 900; first compound 0.3162 µM) was 0.459. For the same compound, the relative viability (SW 900; first compound 1 µM) was 0.456, the relative viability (LCLC-103H; first compound 0.01 µM) was 0.807 and the relative viability (LCLC-103H; first compound 0.03162 µM) was 0.763. For the same compound, the relative viability (LCLC-103H; first compound 0.1 µM) was 0.766, the relative viability (LCLC-103H; first compound 0.3162 µM) was 0.77 and the relative viability (LCLC-103H; first compound 1 µM) was 0.686. For the same compound, the relative viability (SK-LU-1; first compound 0.01 µM) was 0.641, the relative viability (SK-LU-1; first compound 0.03162 µM) was 0.621 and the relative viability (SK-LU-1; first compound 0.1 µM) was 0.596. For the same compound, the relative viability (SK-LU-1; first compound 0.3162 µM) was 0.621 and the relative viability (SK-LU-1; first compound 1 µM) was 0.661.
